Laboratory results published in the supplement of paper PMC10307832.

Columns and labels:
Test in all cases: relative viability (nuclei count vs DMSO), 5 days (fraction); higher = more cells survive
PC-14 = system: PC-14
Procedure, shortened: (§1)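 Medians of duplicate plates are given as relative viability. That measure is the nuclei count in treated wells divided by the count in vehicle wells. Counts were taken on 4× images of lung cancer cell lines in 1536-well plates, 5 days after pin-tool dosing the day after seeding with one drug alone or a fixed anchor-drug dose plus five library-drug doses (not always all listed) in √10 steps.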

NCI-H1915 = system: NCI-H1915
Procedure, shortened: as §1

EMC-BAC-2 = system: EMC-BAC-2
Procedure, shortened: as §1

NCI-H2126 = system: NCI-H2126
Procedure, shortened: as §1

H3255 = system: H3255
Procedure, shortened: as §1

NCI-H1993 = system: NCI-H1993
Procedure, shortened: as §1

NCI-H727 = system: NCI-H727
Procedure, shortened: as §1

LCLC-97TM1 = system: LCLC-97TM1
Procedure, shortened: as §1

EPLC-272H = system: EPLC-272H
Procedure, shortened: as §1

LXF-289 = system: LXF-289
Procedure, shortened: as §1

NCI-H661 = system: NCI-H661
Procedure, shortened: as §1

For `C=C1C(=O)O[C@@H](CCCCCCCC)[C@@H]1C(=O)O` [C-75] + CS(=O)(=O)N1CCN(Cc2cc3nc(-c4cccc5[nH]ncc45)nc(N4CCOCC4)c3s2)CC1 [Pictilisib] (partner 1 µM), the relative viability (PC-14; first compound 0.08 µM) was 0.748, the relative viability (PC-14; first compound 0.253 µM) was 0.997 and the relative viability (PC-14; first compound 0.8 µM) was 0.668. For the same molecule, the relative viability (PC-14; first compound 2.53 µM) was 0.753, the relative viability (PC-14; first compound 8 µM) was 0.695 and the relative viability (NCI-H1915; first compound 0.08 µM) was 0.953. It also gave a relative viability (NCI-H1915; first compound 0.253 µM) of 1.08, a relative viability (NCI-H1915; first compound 0.8 µM) of 0.857 and a relative viability (NCI-H1915; first compound 2.53 µM) of 0.828. For the same molecule, the relative viability (NCI-H1915; first compound 8 µM) was 0.763, the relative viability (EMC-BAC-2; first compound 0.08 µM) was 0.51 and the relative viability (EMC-BAC-2; first compound 0.253 µM) was 0.491. The relative viability (EMC-BAC-2; first compound 0.8 µM) was 0.51, the relative viability (EMC-BAC-2; first compound 2.53 µM) was 0.521 and the relative viability (EMC-BAC-2; first compound 8 µM) was 0.587. It also gave a relative viability (NCI-H2126; first compound 0.08 µM) of 0.465, a relative viability (NCI-H2126; first compound 0.253 µM) of 0.597 and a relative viability (NCI-H2126; first compound 0.8 µM) of 0.471. The relative viability (NCI-H2126; first compound 2.53 µM) was 0.506, the relative viability (NCI-H2126; first compound 8 µM) was 0.469 and the relative viability (H3255; first compound 0.08 µM) was 0.464. The relative viability (H3255; first compound 0.253 µM) was 0.572, the relative viability (H3255; first compound 0.8 µM) was 0.458 and the relative viability (H3255; first compound 2.53 µM) was 0.494. For the same molecule, the relative viability (H3255; first compound 8 µM) was 0.447, the relative viability (NCI-H1993; first compound 0.08 µM) was 0.727 and the relative viability (NCI-H1993; first compound 0.253 µM) was 0.938. It also gave a relative viability (NCI-H1993; first compound 0.8 µM) of 0.842, a relative viability (NCI-H1993; first compound 2.53 µM) of 0.801 and a relative viability (NCI-H1993; first compound 8 µM) of 0.914. For the same molecule, the relative viability (NCI-H727; first compound 0.08 µM) was 0.436, the relative viability (NCI-H727; first compound 0.253 µM) was 0.59 and the relative viability (NCI-H727; first compound 0.8 µM) was 0.339. The relative viability (NCI-H727; first compound 2.53 µM) was 0.362, the relative viability (NCI-H727; first compound 8 µM) was 0.577 and the relative viability (LCLC-97TM1; first compound 0.08 µM) was 0.234. For the same molecule, the relative viability (LCLC-97TM1; first compound 0.253 µM) was 0.215, the relative viability (LCLC-97TM1; first compound 0.8 µM) was 0.265 and the relative viability (LCLC-97TM1; first compound 2.53 µM) was 0.187. It also gave a relative viability (LCLC-97TM1; first compound 8 µM) of 0.18, a relative viability (EPLC-272H; first compound 0.08 µM) of 0.336 and a relative viability (EPLC-272H; first compound 0.253 µM) of 0.308. The relative viability (EPLC-272H; first compound 0.8 µM) was 0.298, the relative viability (EPLC-272H; first compound 2.53 µM) was 0.265 and the relative viability (EPLC-272H; first compound 8 µM) was 0.232. It also gave a relative viability (LXF-289; first compound 0.08 µM) of 0.77, a relative viability (LXF-289; first compound 0.253 µM) of 0.836 and a relative viability (LXF-289; first compound 0.8 µM) of 0.76. The relative viability (LXF-289; first compound 2.53 µM) was 0.771, the relative viability (LXF-289; first compound 8 µM) was 0.73 and the relative viability (NCI-H661; first compound 0.08 µM) was 0.398. The relative viability (NCI-H661; first compound 0.253 µM) was 0.493, the relative viability (NCI-H661; first compound 0.8 µM) was 0.355 and the relative viability (NCI-H661; first compound 2.53 µM) was 0.315. It also gave a relative viability (NCI-H661; first compound 8 µM) of 0.382.
